# Calls of active or inactive are those of the source. No cut-off for these calls is given here.
# Experiments:
# MDA-MB-231 [1] = assay: Induction of cell cycle arrest in human MDA-MB-231 cells assessed as increase in p21 expression at 0.25 to 5 uM incubated for 24 hrs by Western blot analysis; format: functional, cell-based; settings: dose 0.25-5 µM
# MDA-MB-231 [2] = assay: Induction of apoptosis in human MDA-MB-231 cells assessed as necrotic cells at 2.5 uM incubated for 72 hrs by annexinV-FITC and PI staining based flow cytometry analysis (reference value: 0.330 %); format: functional
# [3] = MRT in Sprague-Dawley rat at 20 mg/kg, po measured upto 12 hrs by LC-MS/MS analysis; format: ADME, organism-based; settings: in vivo
# Histone deacetylase 7 = Histone deacetylase 7 (Homo sapiens, UniProt Q8WUI4); assay: Inhibition of recombinant human N-terminal GST-tagged HDAC-7 (501 to end residues) expressed in baculovirus infected in Sf9 cells using Boc-Lys (q-Ac)-AMC as substrate incubated for 10 mins followed by substrate addition and measured after 30 mins by fluorescence based assay
# Chain of Histone deacetylase 7 (Q8WUI4 whole entry): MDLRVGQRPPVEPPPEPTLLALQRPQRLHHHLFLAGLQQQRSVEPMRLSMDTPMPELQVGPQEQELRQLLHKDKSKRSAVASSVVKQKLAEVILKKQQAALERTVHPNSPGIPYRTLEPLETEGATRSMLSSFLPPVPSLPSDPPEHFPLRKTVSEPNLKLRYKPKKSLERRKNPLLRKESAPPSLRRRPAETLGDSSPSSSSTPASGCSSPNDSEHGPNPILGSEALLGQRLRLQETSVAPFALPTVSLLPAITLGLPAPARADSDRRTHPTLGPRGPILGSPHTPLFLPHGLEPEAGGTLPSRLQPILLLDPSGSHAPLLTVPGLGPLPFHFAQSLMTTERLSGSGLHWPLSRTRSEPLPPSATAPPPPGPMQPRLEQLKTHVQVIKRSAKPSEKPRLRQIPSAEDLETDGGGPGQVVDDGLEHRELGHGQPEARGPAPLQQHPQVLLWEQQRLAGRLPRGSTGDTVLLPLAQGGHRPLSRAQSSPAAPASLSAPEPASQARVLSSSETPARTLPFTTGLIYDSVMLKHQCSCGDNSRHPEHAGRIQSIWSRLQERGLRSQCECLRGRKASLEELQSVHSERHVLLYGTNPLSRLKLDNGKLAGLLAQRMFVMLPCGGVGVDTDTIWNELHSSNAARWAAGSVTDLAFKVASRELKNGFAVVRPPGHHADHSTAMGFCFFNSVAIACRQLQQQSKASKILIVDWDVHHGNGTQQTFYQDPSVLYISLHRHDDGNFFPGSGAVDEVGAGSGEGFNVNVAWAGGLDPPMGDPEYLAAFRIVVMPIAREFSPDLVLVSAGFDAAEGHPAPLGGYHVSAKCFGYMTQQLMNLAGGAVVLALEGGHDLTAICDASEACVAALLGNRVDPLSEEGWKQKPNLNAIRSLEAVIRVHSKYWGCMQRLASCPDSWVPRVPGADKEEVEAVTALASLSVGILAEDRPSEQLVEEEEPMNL
# 4T1 [4] = assay: Induction of apoptosis in mouse 4T1 cells assessed as early apoptotic cells at 5 uM incubated for 72 hrs by annexinV-FITC and PI staining based flow cytometry analysis (reference value: 1.65 %); format: functional
# MDA-MB-231 [5] = assay: Induction of apoptosis in human MDA-MB-231 cells assessed as early apoptotic cells at 1 uM incubated for 72 hrs by annexinV-FITC and PI staining based flow cytometry analysis (reference value: 5.57 %); format: functional
# [6] = Half life in Sprague-Dawley rat at 20 mg/kg, iv measured upto 12 hrs by LC-MS/MS analysis; format: ADME, organism-based; settings: in vivo
# 4T1 [7] = assay: Induction of apoptosis in mouse 4T1 cells assessed as early apoptotic cells at 2.5 uM incubated for 72 hrs by annexinV-FITC and PI staining based flow cytometry analysis (reference value: 1.65 %); format: functional
# 4T1 [8] = assay: Induction of apoptosis in mouse 4T1 cells assessed as late apoptotic cells at 5 uM incubated for 72 hrs by annexinV-FITC and PI staining based flow cytometry analysis (reference value: 2.24 %); format: functional
# A-375 = assay: Cytotoxicity against human A-375 cells assessed as reduction in cell viability incubated for 48 hrs by MTT assay; format: functional, cell-based; settings: A-375, 48 h
# MDA-MB-231 [9] = assay: Induction of apoptosis in human MDA-MB-231 cells xenografted in BALB/c mouse assessed as increase in caspase-3 cleavage by immunohistochemistry method; format: functional, cell-based
# [10] = Genotoxicity in Salmonella typhimurium TA1535 by Ames test; format: toxicity; settings: salmonella enterica subsp. enterica serovar typhimurium
# 4T1 [11] = assay: Potency index, ratio of IC50 of SAHA to IC50 of compound for cytotoxicity against mouse 4T1 cells assessed as reduction in cell viability incubated for 48 hrs by MTT assay; format: functional
# MDA-MB-231 [12] = assay: Induction of apoptosis in human MDA-MB-231 cells assessed as early apoptotic cells at 5 uM incubated for 72 hrs by annexinV-FITC and PI staining based flow cytometry analysis (reference value: 5.57 %); format: functional
# MDA-MB-231 [13] = assay: Cytotoxicity against human MDA-MB-231 cells assessed as reduction in cell viability incubated for 48 hrs by MTT assay; format: functional, cell-based; settings: MDA-MB-231, 48 h
# 4T1 [14] = assay: Antitumor activity against mouse 4T1 cells xenografted in BALB/c mouse assessed as tumor growth inhibition at 20 mg/kg, ip administered for 22 days and measured on day 22; format: functional, organism-based; settings: time 22.0 day
# MDA-MB-231 [15] = assay: Induction of cell cycle arrest in human MDA-MB-231 cells assessed as G0/G1 phase accumulation at 2 uM incubated for 24 hrs by PI staining based flow cytometry analysis (reference value: 29.10 %); format: functional
# 4T1 [16] = assay: Induction of apoptosis in mouse 4T1 cells assessed as early apoptotic cells at 1 uM incubated for 72 hrs by annexinV-FITC and PI staining based flow cytometry analysis (reference value: 1.65 %); format: functional
# HepG2 = assay: Cytotoxicity against human HepG2 cells assessed as reduction in cell viability incubated for 48 hrs by MTT assay; format: functional, cell-based; settings: HepG2, 48 h
# MDA-MB-231 [17] = assay: Antitumor activity against human MDA-MB-231 cells xenografted in nude mouse assessed as tumor growth inhibition at 25 mg/kg, ip administered for 34 days and measured on day 34; format: functional, organism-based; settings: time 34.0 day
# PANC-1 = assay: Cytotoxicity against human PANC-1 cells assessed as reduction in cell viability incubated for 48 hrs by MTT assay; format: functional, cell-based; settings: PANC-1, 48 h
# SMMC-7721 = assay: Cytotoxicity against human SMMC-7721 cells assessed as reduction in cell viability incubated for 48 hrs by MTT assay; format: functional, cell-based; settings: SMMC-7721, 48 h
# [18] = Cytotoxicity against human B16-F10 cells assessed as reduction in cell viability incubated for 48 hrs by MTT assay; format: functional, cell-based; settings: B16-F10, 48 h
# [19] = Toxicity in BALB/c mouse xenografted with mouse 4T1 cells assessed as effect on body weight at 20 mg/kg, ip administered for 22 days and measured on day 22; format: organism-based; settings: in vivo, 528 h, time 22 day
# MDA-MB-231 [20] = assay: Induction of apoptosis in human MDA-MB-231 cells assessed as viable cells at 5 uM incubated for 72 hrs by annexinV-FITC and PI staining based flow cytometry analysis (reference value: 90.3 %); format: functional; settings: read-out: Activity
# [21] = Tmax in Sprague-Dawley rat at 20 mg/kg, iv measured upto 12 hrs by LC-MS/MS analysis; format: ADME, organism-based; settings: in vivo
# Histone deacetylase 11 = Histone deacetylase 11 (Homo sapiens, UniProt Q96DB2); assay: Inhibition of recombinant human N-terminal GST-tagged full length HDAC-11 expressed in baculovirus infected in Sf9 cells using Boc-Lys (q-Ac)-AMC as substrate incubated for 10 mins followed by substrate addition and measured after 30 mins by fluorescence based assay
# Chain of Histone deacetylase 11 (Q96DB2 whole entry): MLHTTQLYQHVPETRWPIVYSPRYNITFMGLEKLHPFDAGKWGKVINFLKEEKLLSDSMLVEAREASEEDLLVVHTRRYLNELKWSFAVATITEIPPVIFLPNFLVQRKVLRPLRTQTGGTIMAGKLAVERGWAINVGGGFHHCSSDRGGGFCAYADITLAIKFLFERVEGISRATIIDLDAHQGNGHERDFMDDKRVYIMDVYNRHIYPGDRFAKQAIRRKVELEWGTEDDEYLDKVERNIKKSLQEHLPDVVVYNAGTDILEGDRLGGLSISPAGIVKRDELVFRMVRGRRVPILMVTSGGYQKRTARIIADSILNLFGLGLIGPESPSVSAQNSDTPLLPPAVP
# MDA-MB-231 [22] = assay: Induction of apoptosis in human MDA-MB-231 cells assessed as increase in PARP cleavage incubated for 48 hrs by Western blot analysis; format: functional, cell-based; settings: dose 0.5-10 µM
# MDA-MB-231 [23] = assay: Induction of apoptosis in human MDA-MB-231 cells assessed as late apoptotic cells at 5 uM incubated for 72 hrs by annexinV-FITC and PI staining based flow cytometry analysis (reference value: 3.79 %); format: functional
# MDA-MB-231 [24] = assay: Induction of cell cycle arrest in human MDA-MB-231 cells assessed as G2/M phase accumulation at 2 uM incubated for 24 hrs PI staining based by flow cytometry analysis (reference value: 27.08 %); format: functional
# MDA-MB-231 [25] = assay: Induction of apoptosis in human MDA-MB-231 cells assessed as necrotic cells at 5 uM incubated for 72 hrs by annexinV-FITC and PI staining based flow cytometry analysis (reference value: 0.330 %); format: functional
# MDA-MB-231 [26] = assay: Antitumor activity against human MDA-MB-231 cells xenografted in BALB/c mouse assessed as tumor growth inhibition at 25 mg/kg, ip administered for 34 days and measured on day 34; format: functional, organism-based; settings: time 34.0 day
# [27] = Toxicity in C57BL/6 mouse assessed death of organism at 50 mg/kg, po observed for 20 days; format: organism-based; settings: in vivo, 480 h, time 20 day
# MDA-MB-231 [28] = assay: Induction of apoptosis in human MDA-MB-231 cells assessed as effect on p53 expression at 0.5 to 10 uM incubated for 48 hrs by Western blot analysis; format: functional, cell-based; settings: dose 0.5-10 µM
# BT-549 = assay: Cytotoxicity against human BT-549 cells assessed as reduction in cell viability incubated for 48 hrs by MTT assay; format: functional, cell-based; settings: BT-549, 48 h
compound,measurement,setting,value
CN(C)CCOc1ccc(-c2cc(=O)c3c(O)cc(OCCCCCC(=O)NO)cc3o2)cc1.Cl,Activity,MDA-MB-231 [1],Active
same,Activity,MDA-MB-231 [2],0.11%
same,MRT,[3],1.1 h
same,IC50,Histone deacetylase 7,> 10000 nM
same,Activity,4T1 [4],54.9%
same,Activity,MDA-MB-231 [5],23.1%
same,half-life,[6],1.42 h
same,Activity,4T1 [7],31.4%
same,Activity,4T1 [8],21.9%
same,IC50,A-375,1180 nM
same,Activity,MDA-MB-231 [9],Active
same,Activity,[10],Non-Toxic
same,Ratio IC50,4T1 [11],2
same,Activity,MDA-MB-231 [12],55%
same,IC50,MDA-MB-231 [13],2050 nM
same,TGI,4T1 [14],Active
same,Activity,MDA-MB-231 [15],61.9%
same,Activity,4T1 [16],15.5%
same,IC50,HepG2,1160 nM
same,TGI,MDA-MB-231 [17],Active
same,IC50,PANC-1,> 10000 nM
same,IC50,SMMC-7721,530 nM
same,IC50,[18],510 nM
same,Activity,[19],Non-Toxic
same,viability at 5 µM,MDA-MB-231 [20],17.2%
same,Tmax,[21],4.98 min
same,IC50,Histone deacetylase 11,179 nM
same,Activity,MDA-MB-231 [22],Dose-dependent effect
same,Activity,MDA-MB-231 [23],27.2%
same,Activity,MDA-MB-231 [24],27.89%
same,Activity,MDA-MB-231 [25],0.06%
same,TGI,MDA-MB-231 [26],Active
same,Activity,[27],Non-Toxic
same,Activity,MDA-MB-231 [28],inactive
same,IC50,BT-549,4130 nM

# Source: ChEMBL document CHEMBL4765432, “Design and synthesis of novel Flavone-based histone deacetylase inhibitors antagonizing activation of STAT3 in breast cancer” (Eur J Med Chem, 2020)
